Laboratory results: patent US20090028925A1, “Novel Phosphinic Acid-Containing Thyromimetics” (priority 2005, published 2009)
Where two headings read alike, the source gives them in different places.

Experiments:
[1] = target: T1, human thyroid hormone receptors TRα1 (Homo sapiens, UniProt P10827); test: Receptor binding to TRα1 (gel filtration and scintillation proximity assay, labeled T3)
T1 construct: made in house; host or cells: Sf9 insect cells (baculovirus)
T1 sequence (P10827 1-410 isoform P10827-2): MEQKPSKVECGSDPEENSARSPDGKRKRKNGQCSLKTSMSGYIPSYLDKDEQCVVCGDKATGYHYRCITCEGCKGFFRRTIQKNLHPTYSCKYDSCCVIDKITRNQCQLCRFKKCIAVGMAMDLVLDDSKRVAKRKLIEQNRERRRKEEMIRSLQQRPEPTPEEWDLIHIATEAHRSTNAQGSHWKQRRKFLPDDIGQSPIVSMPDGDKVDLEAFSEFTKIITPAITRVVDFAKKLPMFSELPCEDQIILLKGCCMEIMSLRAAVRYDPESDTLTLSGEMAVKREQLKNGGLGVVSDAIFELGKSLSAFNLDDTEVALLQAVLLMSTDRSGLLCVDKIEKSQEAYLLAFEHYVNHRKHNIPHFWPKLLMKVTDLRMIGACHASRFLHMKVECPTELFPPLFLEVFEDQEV
T1 sequence (P19793 1-462 partner): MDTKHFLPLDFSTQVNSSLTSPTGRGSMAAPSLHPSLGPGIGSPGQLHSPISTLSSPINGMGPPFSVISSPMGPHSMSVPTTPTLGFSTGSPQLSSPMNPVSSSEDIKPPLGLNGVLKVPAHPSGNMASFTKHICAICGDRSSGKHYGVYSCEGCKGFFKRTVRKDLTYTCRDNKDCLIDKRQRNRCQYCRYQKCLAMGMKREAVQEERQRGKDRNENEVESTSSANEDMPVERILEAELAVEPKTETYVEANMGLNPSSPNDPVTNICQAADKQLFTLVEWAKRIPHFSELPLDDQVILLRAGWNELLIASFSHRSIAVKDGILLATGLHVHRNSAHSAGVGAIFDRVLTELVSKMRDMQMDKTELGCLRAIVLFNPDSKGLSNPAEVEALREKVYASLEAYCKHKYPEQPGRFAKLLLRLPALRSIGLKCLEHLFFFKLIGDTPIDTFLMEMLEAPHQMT
Description: (§1) Methods: Baculoviruses expressing TRα1, TRβ1 and RXRα were generated using cDNA and other reagents from Invitrogen (Carlsbad, Calif.). To produce TR/RXR heterodimer proteins, the sf9 insect cells were first grown to a density of 1-5×10^5 cells/mL. […] and RXRα baculovirus stocks were added to the cell culture with a ratio of 1 to 1 (multiplicity of infection=10). The cells were harvested three days after the infection.
(§2) Binding of compounds to either the TRα1 or TRβ1 were also performed by means of scintillation proximity assays (SPA). The SPA assay, a common method used for the quantitation of receptor-ligand equilibria, makes use of special beads coated with a scintillant and a capture molecule, copper, which binds to the histidine-tagged α or β receptor.

[2] = target: T2, human thyroid hormone receptors TRβ1 (Homo sapiens, UniProt P10828); test: Receptor binding to TRβ1 (gel filtration and scintillation proximity assay, labeled T3)
T2 construct: made in house; host or cells: Sf9 insect cells (baculovirus)
T2 sequence (P10828 1-461): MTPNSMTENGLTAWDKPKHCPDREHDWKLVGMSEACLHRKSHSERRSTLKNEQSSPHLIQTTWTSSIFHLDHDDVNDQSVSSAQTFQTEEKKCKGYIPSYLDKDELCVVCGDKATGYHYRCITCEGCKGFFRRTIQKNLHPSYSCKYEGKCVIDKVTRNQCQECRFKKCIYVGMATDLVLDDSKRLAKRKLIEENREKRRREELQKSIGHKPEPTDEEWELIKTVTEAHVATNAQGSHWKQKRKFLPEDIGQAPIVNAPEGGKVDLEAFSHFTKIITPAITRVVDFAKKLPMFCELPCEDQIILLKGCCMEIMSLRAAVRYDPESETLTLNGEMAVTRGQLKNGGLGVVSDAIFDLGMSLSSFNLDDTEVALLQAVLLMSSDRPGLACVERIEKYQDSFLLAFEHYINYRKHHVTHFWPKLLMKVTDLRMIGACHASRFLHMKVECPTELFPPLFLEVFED
T2 sequence (P19793 1-462 partner): T1 sequence (P19793 1-462 partner)
Description: as §1, §2

Row | Compound | Ki ([1]; SPA data, read-out: Ki TRα) | Ki ([2]; SPA data, read-out: Ki TRβ) | other results
1 | Cc1cc(OCP(=O)(O)O)cc(C)c1C(=O)c1ccc(O)c(C(C)C)c1 [Compound 25, [3,5-dimethyl-4-(3′-iso-propyl-4′-hydroxybenzoyl)phenoxy]methylphosphonic acid] |  |  | Ki [1]: > 2000 nM; Ki [2]: 363 nM
2 | CC(C)c1cc(Oc2c(I)cc(CP(=O)(O)O)cc2I)ccc1O [Compound 5, 3,5-diiodo-4-(4′-hydroxy-3′-iso-propylphenoxy)benzylphosphonic acid] |  |  | Ki ([1]; read-out: Ki TRα): 1.84 nM; Ki ([2]; read-out: Ki TRβ): 0.84 nM
3 | Cc1cc(OCP(=O)(O)O)cc(C)c1Cc1ccc(O)c(I)c1 [Compound 34, [3,5-dimethyl-4-(4′-hydroxy-3′-iodobenzyl)phenoxy]methylphosphonic acid] | 118 nM | 6.5 nM | 
4 | Cc1cc(Cc2c(C)cc(OCP(=O)(O)O)cc2C)ccc1O [Compound 7-7, [3,5-dimethyl-4-[4′-hydroxy-3′-methylbenzyl]phenoxy]methylphosphonic acid] | 898 nM | 90 nM | 
5 | Cc1cc(OC[P@]2(=O)OCC[C@@H](c3cccc(F)c3)O2)cc(C)c1Cc1ccc(O)c(C(C)C)c1 [Compound 13-3-trans] | 2010 nM | 2460 nM | 
6 | COc1ccc(Oc2c(C)cc(CCP(=O)(O)O)cc2C)cc1C(C)C [Compound 30, 2-[3,5-dimethyl-4-(3′-iso-propyl-4′-methoxyphenoxy)phenyl]ethylphosphonic acid] | > 2000 nM | > 2000 nM | 
7 | Cc1cc(NC(=O)P(=O)(O)O)cc(C)c1Oc1ccc(O)c(C(C)C)c1 [Compound 1, N-[3,5-dimethyl-4-(3′-iso-propyl-4′-hydroxyphenoxy)]carbamoylphosphonic acid] |  |  | Ki ([1]; read-out: Ki TRα): 285 nM; Ki ([2]; read-out: Ki TRβ): 36.1 nM
8 | CCOC(=O)[C@@H](NP(=O)(COc1cc(C)c(Cc2ccc(O)c(C(C)C)c2)c(C)c1)N[C@H](C(=O)OCC)C(C)C)C(C)C [Compound 15-3, di-N-(1-ethoxycarbonyl-2-methyl-propylamino)[3,5-dimethyl-4-(3′-iso-propyl-4′-hydroxybenzyl)phenoxy]methylphosphonamide] | > 2000 nM | > 2000 nM | 
9 | Cc1cc(OCP(=O)(O)O)cc(C)c1Sc1ccc(O)c(C(C)C)c1 [Compound 43, [3,5-dimethyl-4-S-[(4′-hydroxy-3′-iso-propylphenyl)sulfanyl]phenoxy]methylphosphonate] | 363 nM | 108 nM | 
10 | Cc1cc(OCP(=O)(O)O)cc(C)c1Cc1ccc(O)c(C(=O)c2ccc(F)cc2)c1 [Compound 39, [3,5-dimethyl-4-[3′-(4-fluoro-benzoyl)-4′-hydroxy-benzyl]phenoxy]methylphosphonic acid] | > 2000 nM | 58 nM | 
11 | Cc1cc(CC(=O)CP(=O)(O)O)cc(C)c1Oc1ccc(O)c(C(C)C)c1 [Compound 32, 3-[3,5-dimethyl-4-(4′-hydroxy-3′-iso-propylphenoxy)]phenyl-2-oxopropylphosphonic acid] | 284 nM | 96 nM | 
12 | Cc1cc(CP(=O)(O)O)cc(C)c1Oc1ccc(O)c(C(C)C)c1 [Compound 19-3, [3,5-dimethyl-4-(4′-hydroxy-3′-iso-propylphenoxy)]benzylphosphonic acid] |  | 128 nM | Ki ([1]; read-out: Ki TRα): 1760 nM
13 | Cc1cc(OC[P@@]2(=O)OCC[C@@H](c3cc(Cl)cc(Cl)c3)O2)cc(C)c1Cc1ccc(O)c(C(C)C)c1 [Compound 13-7-cis] | 49600 nM | 45100 nM | 
14 | Cc1cc(C(=O)NCP(=O)(O)O)cc(C)c1Oc1ccc(O)c(C(C)C)c1 [Compound 23, N-[3,5-dimethyl-4-(4′-hydroxy-3′-iso-propylphenoxy)benzamido]methyl phosphonic acid] | > 2000 nM | > 2000 nM | 
15 | CC(=O)Nc1ccc(Cc2c(C)cc(OCP(=O)(O)O)cc2C)cc1C(C)C [Compound 7-12, [4-(4′-acetylamino-3′-iso-propylbenzyl)-3,5-dimethylphenoxy]methylphosphonic acid] | > 2000 nM | 61 nM | 
16 | Cc1cc(C(=O)CP(=O)(O)O)cc(C)c1Cc1ccc(O)c(Cc2ccccc2)c1 [Compound 41, [3,5-dimethyl-4-[3′-benzyl-4′-hydroxy-benzyl]benzoyl]methylphosphonic acid] | > 2000 nM | 181 nM | 
17 | NC(Cc1cc(I)c(Oc2ccc(O)c(I)c2)c(I)c1)P(=O)(O)O (centres unmarked) [Compound 2, 1-amino-2-[3,5-diiodo-4-(4′-hydroxy-3′-iodophenoxy)phenyl]ethylphosphonic acid] |  |  | Ki ([1]; read-out: Ki TRα): 1420 nM; Ki ([2]; read-out: Ki TRβ): 271 nM
18 | CC(C)c1cc(Oc2c(I)cc(CCP(=O)(O)O)cc2I)ccc1O [Compound 4, 2-[3,5-diiodo-4-(4′-hydroxy-3′-iso-propylphenoxy)phenyl]ethylphosphonic acid] | 14.1 nM | 0.99 nM | 
19 | Cc1cc(OCP(=O)(O)O)cc(C)c1Cc1ccc(O)c(C(=O)NC(C)C)c1 [Compound 36, [3,5-dimethyl-4-(4′-hydroxy-3′-iso-propylcarbamoylbenzyl)-phenoxy]methylphosphonic acid] | > 2000 nM | 106 nM | 
20 | CC(C)c1cc(Cc2c(Cl)cc(OCP(=O)(O)O)cc2Cl)ccc1O [Compound 7-5, [3,5-dichloro-4-(4′-hydroxy-3′-iso-propylbenzyl)phenoxy]methylphosphonic acid] | 67 nM | 9.5 nM | 
21 | Cc1cc(SCP(=O)(O)O)cc(C)c1Oc1ccc(O)c(C(C)C)c1 [Compound 54, [3,5-Dimethyl-4-(4′-hydroxy-3′-iso-propylphenoxy)benzenesulfanyl]methylphosphonic acid] |  |  | Ki ([1]; read-out: Ki TRα): 143 nM; Ki ([2]; read-out: Ki TRβ): 42 nM
22 | Cc1cc(OC[P@]2(=O)OCC[C@@H](c3cccc(Cl)c3)O2)cc(C)c1Cc1ccc(O)c(C(C)C)c1 [Compound 13-1-trans, (S)-2-[(3,5-dimethyl-4-(4′-hydroxy-3′-iso-propylbenzyl)phenoxy)methyl]-4-(3-chlorophenyl)-2-oxo-2λ^5-[1,3,2]-dioxaphosphonane] | 1740 nM | 1320 nM | 
23 | COc1ccc(Cc2c(C)cc(OCP(=O)(O)O)cc2C)cc1C(C)C [Compound 7-4, [3,5-dimethyl-4-(3′-iso-propyl-4′-methoxybenzyl)phenoxy]methylphosphonic acid] | > 2000 nM | > 2000 nM | 
24 | CC(C)c1cc(Oc2c(Cl)cc(C(=O)CP(=O)(O)O)cc2Cl)ccc1O [Compound 21, 2-[3,5-dichloro-4-(4′-hydroxy-3′-iso-propylphenoxy)phenyl]-2-oxoethylphosphonic acid] | > 1400 nM | > 180 nM | 
25 | CCc1cc(Cc2c(C)cc(CCP(=O)(O)O)cc2C)ccc1O [Compound 24-4, 2-[3,5-dimethyl-4-(3′-Ethyl-4′-hydroxy-benzyl)phenyl]ethylphosphonic acid] | > 2000 nM | 92 nM | 
26 | Cc1cc(OCP(=O)(O)O)cc(C)c1Nc1ccc(O)c(C(C)C)c1 [Compound 20, [3,5-dimethyl-4-N-(4′-hydroxy-3-iso-propylphenylamino)phenoxy]methylphosphonic acid] | > 2000 nM | > 2000 nM | 
27 | O=P(O)(O)Cc1cc(Cl)c(Oc2ccc(O)c(S(=O)(=O)N[C@@H]3C[C@H]4CC[C@@H]3C4)c2)c(Cl)c1 (relative stereo) [Compound 10, 3,5-dichloro-4-[4′-hydroxy-3′-(N-exo-2-norbornylsulfonamido)phenoxy]benzylphosphonic acid] | > 2000 nM | > 2000 nM | 
28 | COc1cc(OCP(=O)(O)O)cc(OC)c1Cc1ccc(O)c(C(C)C)c1 [Compound 7-2, [3,5-dimethoxy-4-(4′-hydroxy-3′-iso-propylbenzyl)phenoxy]methylphosphonic acid] | > 2000 nM |  | Ki ([2]; read-out: Ki TRβ): 146 nM
